Results as given in the NIST ThermoML archive (doi:10.1021/je060348v).
Numbers after ± are expanded uncertainties.

Conditions: Crystal; visual observation

Normal melting temperature: 94.50 ± 1 °C
Structure (SMILES): OC[C@@H](O)[C@H](O)[C@@H](O)CO [xylitol]
